According to the NIST ThermoML archive (doi:10.1016/j.tca.2016.07.008):
Numbers after ± are expanded uncertainties.

Legend:
[1] = Molar enthalpy of transition or fusion; details: Crystal; DSC
[2] = Crystal; DTA

Compound | Molar enthalpy of transition or fusion [1] [kcal/mol] | Normal melting temperature [2] [°C]
COc1cccc(/C=N/NC(=O)c2ccncc2)c1O [N'-(2-hydroxy-3-methoxybenzylidene)isonicotinohydrazide] | 11.9 ± 0.263 | 236.70 ± 2
O=C(N/N=C/c1ccccc1O)c1ccncc1 [N'-(2-hydroxybenzylidene)isonicotinohydrazide] | 10.9 ± 0.239 | 248.20 ± 2
